Four compounds from ChEMBL document CHEMBL1201862, “PubChem BioAssay data set” (2004) can be followed below.

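Protocol summary: plate cells (96-well), add compound at 5 concentrations, incubate 48 h, interpolate endpoints linearly. The concentration for 50% growth inhibition is given as GI50.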 Active and inactive are the calls of the source. No stated cut-off is given here; in the data, active = GI50 up to about 1.1 µM and inactive = higher.

Some test systems named below: OVCAR-5; MDA-MB-435; NCI-H23; SR; 786-0; EKVX; CAKI-1; NCI-H226; MOLT-4; HT-29; MDA-MB-231; NCI-H460; Malme-3M; A549; U-251; DU-145; LOX IMVI; SK-MEL-28; CCRF-CEM; COLO 205.
Assay in all cases: NCI anticancer screen, dose series, 48 h

For the compound `Nc1ccc2c(c1)N(C(=O)CCCC(=O)N1CC(CCl)c3ccc(N)cc31)CC2CCl` (centres undefined), the GI50 with OVCAR-5 is 0.875 µM (active); in the test with MDA-MB-435 it was 0.953 µM (active); in the test with NCI-H23, 0.218 µM (active); in the test with SR, 0.017 µM (active); in the test with 786-0, 0.169 µM (active); in the test with EKVX, 1.51 µM (inactive). The GI50 is 0.141 µM (active) with CAKI-1; 0.0226 µM (active) in the test on NCI-H226; 0.0646 µM (active) with MOLT-4; 0.946 µM (active) with HT-29; 1.43 µM (inactive) in the test on MDA-MB-231; 0.716 µM (active) in the test on NCI-H460. Also, the GI50 was 0.0883 µM (active) in the test on Malme-3M; 0.472 µM (active) in the test with A549; 0.513 µM (active) with U-251; 0.121 µM (active) with DU-145; 0.267 µM (active) with LOX IMVI; 1.23 µM (inactive) in the test with SK-MEL-28. Besides, the GI50 was 0.185 µM (active) with CCRF-CEM and 0.735 µM (active) in the test on COLO 205.

As to `CN(C)c1ccc(/C=C2\C[C@H]3[C@@H]4CCc5cc(OCCN6CCCC6)ccc5[C@H]4CC[C@]3(C)[C@H]2O)cc1`, the GI50 is 14.7 µM (inactive) in the test with OVCAR-5; 8.43 µM (inactive) in the test with MDA-MB-435; 15.1 µM (inactive) in the test on NCI-H23; 3.29 µM (inactive) in the test with SR; 2.13 µM (inactive) in the test with 786-0; 15 µM (inactive) with EKVX. For the same compound, the GI50 in the test with CAKI-1 is 13.9 µM (inactive); with NCI-H226, 18.7 µM (inactive); in the test on MOLT-4, 9.48 µM (inactive); in the test on HT-29, 3.57 µM (inactive); in the test on MDA-MB-231, 7.14 µM (inactive); with NCI-H460, 8.07 µM (inactive). For the same compound, the GI50 was 11.5 µM (inactive) in the test on Malme-3M; 6.32 µM (inactive) in the test with A549; 3.75 µM (inactive) in the test on U-251; 13.1 µM (inactive) in the test on DU-145; 7.08 µM (inactive) with LOX IMVI; 5.11 µM (inactive) in the test on SK-MEL-28. The GI50 in the test on CCRF-CEM was 2.46 µM (inactive); in the test with COLO 205 it was 13.5 µM (inactive).

In the case of `COCOc1ccc(C2(O)Oc3cc(OCOC)ccc3C2C)c(O)c1` (centres undefined), the GI50 in the test on OVCAR-5 is 17.1 µM (inactive); in the test with MDA-MB-435, 14.9 µM (inactive); in the test on NCI-H23 it was 11.2 µM (inactive); with SR it was 6.95 µM (inactive); in the test with 786-0, 17.8 µM (inactive); with EKVX, 14.6 µM (inactive). Moreover, the GI50 in the test on CAKI-1 is 16.3 µM (inactive); in the test on NCI-H226, 14.8 µM (inactive); in the test with MOLT-4, 10.3 µM (inactive); with HT-29, 18.1 µM (inactive); with MDA-MB-231, 12.3 µM (inactive); in the test with NCI-H460, 13.4 µM (inactive). Further, the GI50 with Malme-3M is 15.3 µM (inactive); with A549, 15.9 µM (inactive); in the test on U-251, 15 µM (inactive); in the test with DU-145, 13.1 µM (inactive); in the test on LOX IMVI it was 16.9 µM (inactive); in the test on SK-MEL-28 it was 17.2 µM (inactive). Moreover, the GI50 in the test with CCRF-CEM is 14.9 µM (inactive); with COLO 205, 18.2 µM (inactive).

As for `COc1cc(/C=C2\C[C@H]3[C@@H]4CC=C5C=C(N6CCCC6)CC[C@]5(C)[C@H]4CC[C@]3(C)C2=O)cc(OC)c1OC`, the GI50 with OVCAR-5 is 7.1 µM (inactive); in the test on MDA-MB-435, 1.63 µM (inactive); in the test on NCI-H23 it was 2.52 µM (inactive); with SR it was 1.44 µM (inactive); in the test on 786-0, 2.84 µM (inactive); with EKVX it was 3.75 µM (inactive). Also, the GI50 in the test on CAKI-1 is 2.84 µM (inactive); in the test on NCI-H226, 13.6 µM (inactive); in the test on MOLT-4, 2.05 µM (inactive); in the test with HT-29, 2.95 µM (inactive); with MDA-MB-231 it was 2.4 µM (inactive); in the test on Malme-3M, 2.01 µM (inactive). In addition, the GI50 was 5.24 µM (inactive) with A549; 1.96 µM (inactive) in the test on U-251; 3.44 µM (inactive) in the test with DU-145; 1.48 µM (inactive) in the test with LOX IMVI; 4.55 µM (inactive) with SK-MEL-28; 2.82 µM (inactive) in the test with CCRF-CEM. For the same compound, the GI50 with COLO 205 is 2.77 µM (inactive).
